Consider 30 molecules from patent publication US12590063B2, “Phenol derivative” (Sumitomo Pharma Co., Ltd., priority 2020, dated 2026).

The structures appear in SMILES notation. Where two headings read alike, the source gives them in different places.

The term EC50 denotes the concentration needed to bring the measured effect to its halfway point.

The target of one data set is T1, Human TRPV1 (Homo sapiens, UniProt Q8NER1).
T1 construct: the TRPV1 gene (GenBank NP_542435.2) had been inserted; expressed in transfected cells; host or cells: HEK293 cells (cat #CCL-82.2, ATCC), transient transfection with pcDNA3.1
T1 sequence (Q8NER1 whole entry): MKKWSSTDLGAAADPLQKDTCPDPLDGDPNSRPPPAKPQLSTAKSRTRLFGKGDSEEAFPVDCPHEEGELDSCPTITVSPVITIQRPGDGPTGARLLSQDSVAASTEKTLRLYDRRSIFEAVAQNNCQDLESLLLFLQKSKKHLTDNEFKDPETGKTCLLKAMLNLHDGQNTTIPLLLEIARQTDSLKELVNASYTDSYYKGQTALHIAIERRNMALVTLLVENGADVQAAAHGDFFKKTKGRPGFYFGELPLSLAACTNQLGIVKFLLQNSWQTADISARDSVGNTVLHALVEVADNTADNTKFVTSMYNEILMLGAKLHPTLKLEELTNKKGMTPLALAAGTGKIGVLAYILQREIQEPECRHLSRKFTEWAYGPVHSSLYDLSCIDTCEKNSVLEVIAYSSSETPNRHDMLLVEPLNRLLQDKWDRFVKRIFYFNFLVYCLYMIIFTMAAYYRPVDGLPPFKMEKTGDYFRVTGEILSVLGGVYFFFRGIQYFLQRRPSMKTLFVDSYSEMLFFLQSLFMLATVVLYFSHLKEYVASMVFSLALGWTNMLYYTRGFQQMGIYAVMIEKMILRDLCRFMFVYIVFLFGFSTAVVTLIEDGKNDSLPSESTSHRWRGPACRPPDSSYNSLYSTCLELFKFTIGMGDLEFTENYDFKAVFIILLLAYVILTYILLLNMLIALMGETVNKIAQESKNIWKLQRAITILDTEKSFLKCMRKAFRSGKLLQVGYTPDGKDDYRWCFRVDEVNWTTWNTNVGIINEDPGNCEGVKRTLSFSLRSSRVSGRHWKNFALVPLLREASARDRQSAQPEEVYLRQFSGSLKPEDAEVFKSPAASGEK
Nature of the data set: Evaluation of agonistic properties using human TRPV1 transiently expressing cells. It is filed as cell-based. From the text:
Test Example 1: Evaluation of Agonistic Properties Using Human TRPV1 Transiently Expressing Cells
(1) Generation of Human TRPV1 Transiently Expressing Cells
Human TRPV1 transiently expressing cells were generated and subjected to culture. Specifically, HEK293 cells (cat #CCL-82.2, ATCC) were used as host cells. Human TRPV1 and apoaequorin were transiently expressed by introducing the mammalian cell expression pcDNA3.1 vector (cat #v790-20, Invitrogen) into which the TRPV1 gene (GenBank NP_542435.2) had been inserted.
The Dulbecco's Modified Eagle's Medium (DMEM) medium (cat #11550-043, Thermo Fisher Scientific) containing 10% inactivated fetal bovine serum (cat #10270-106, Thermo Fisher Scientific) was used as the medium, and the culture was carried out in tissue culture dishes (cat #3020-100, Iwaki). During the culture, cells were collected every 2 to 3 days by treating with PBS containing 10% 2.5 g/1-trypsin/[…] solution, phenol red (cat #32777-44, Nacalai Tesque), and passage culture was carried out.
Three days after the passage, cells were collected with 10% trypsin-PBS treatment at a state of about 80% confluency, suspended in a DMEM medium containing 10% fetal bovine serum to 4000 cells/35 μl/well, and seeded into 384-well plates (cat #353962, FALCON).
The day after seeding, Viviren (cat #E6492, Promega) was added (15 μl/well) to a final concentration of 4.5 μM/HBSS (cat #14065-056, Thermo Fisher Scientific)/90 mM HEPES (cat #17514-15, Nacalai Tesque)/0.1% BSA (cat #01281-84, Nacalai Tesque), and after centrifugation, the samples were allowed to stand at room temperature for 2 hours under light-shielded conditions.
(2) Preparation of Test Compounds
For the test compounds, dimethyl sulfoxide solutions were produced at a concentration 1000 times the final concentration, and from these solutions, solutions at concentration 10 times the final concentration were prepared with Hanks/20 mmol/L HEPES/0.10% BSA (cat #01281-84, Nacalai Tesque).
(3) Evaluation of TRPV1-Agonistic Properties
FDSS7000 (Hamamatsu Photonics K.K.) was used for detection of TRPV1 agonist-stimulated luminescence signals. The test compounds were added to plates to which the cells and luminescent substrates had been added. The luminescence signals (center wavelength: 465 nm) after addition of the test compounds were measured, and the Rlu (Max−Min) was calculated.

A short description of data set [1]: Evaluation test for metabolic stability to S9. It is filed as in vitro ADME. The following applies: liver S9 fraction, 37° C., 15 minutes, final compound concentration 10 nM. How it is done: Test Example 4: Evaluation Test for Metabolic Stability to S9
The compounds were added to a reaction solution in which the liver S9 fraction was diluted with phosphate buffer, and incubation was initiated at 37° C. (final compound concentration 10 nM, final volume 300 μL). After incubation for 15 minutes, the reaction was stopped by adding the reaction solution to acetonitrile, and centrifugation was carried out. After filtering the supernatant through a filter, the amount of compounds was determined using LC/MS/MS. From the amount of compounds obtained, the residual rate 15 minutes after the initiation of the reaction was calculated relative to the amount of compounds before the initiation of the reaction (0 minutes).

[2] abbreviates: HEK293 cells transiently expressing human TRPV1 and apoaequorin, luminescence signal Rlu (Max-Min), read-out: TRPV1 EC50.

As for `COc1cc(CC(=O)Nc2cccc(-c3ccc(OC(=O)c4ccccc4)cc3)c2)ccc1O` [Example 3, 3′-[2-(4-hydroxy-3-methoxyphenyl)acetamido][1,1′-biphenyl]-4-yl benzoate], on Human TRPV1 (setting [2]), the EC50 turned out to be 341 nM. Moreover, in data set [1], the “Residual rate (%)” value is less than 1%.
For `COc1cc(CC(=O)Nc2cccc(-c3ccc(OC(=O)C(C)C)cc3)c2)ccc1O` [Example 4, 3′-[2-(4-hydroxy-3-methoxyphenyl)acetamido][1,1′-biphenyl]-4-yl 2-methylpropanoate], in that order: 33.6 nM and less than 1%.
For `COc1cc(CC(=O)Nc2cccc([C@H]3CC[C@@H](OC(=O)CC4CCCCC4)CC3)c2)ccc1O` [Example 5, cis-4-{3-[2-(4-hydroxy-3-methoxyphenyl)acetamido]phenyl}cyclohexyl cyclohexylacetate], in that order: 61.2 nM and 90%.
For `COc1cc(CC(=O)Nc2cccc([C@H]3CC[C@@H](OC(=O)COc4ccccc4)CC3)c2)ccc1O` [Example 6, cis-4-{3-[2-(4-hydroxy-3-methoxyphenyl)acetamido]phenyl}cyclohexyl phenoxyacetate], in that order: 5.3 nM and 1%.
Take `COc1cc(CC(=O)Nc2cccc([C@H]3CC[C@@H](OC(=O)Cc4cc(F)cc(F)c4)CC3)c2)ccc1O` [Example 7, cis-4-{3-[2-(4-hydroxy-3-methoxyphenyl)acetamido]phenyl}cyclohexyl (3,5-difluorophenyl)acetate]: the EC50 on Human TRPV1 (setting [2]) was found to be 5.6 nM. In addition, the “Residual rate (%)” value in data set [1] is recorded as 100%.
Taken in the same sequence, the figures for `COc1cc(CC(=O)Nc2cccc([C@H]3CC[C@@H](OC(=O)Cc4ccc(F)cc4)CC3)c2)ccc1O` [Example 8, cis-4-{3-[2-(4-hydroxy-3-methoxyphenyl)acetamido]phenyl}cyclohexyl (4-fluorophenyl)acetate] were 6.1 nM and 89%.
Taken in the same sequence, the figures for `COc1cc(CC(=O)Nc2cccc([C@H]3CC[C@@H](OC(=O)Cc4cccc(C)c4)CC3)c2)ccc1O` [Example 9, cis-4-{3-[2-(4-hydroxy-3-methoxyphenyl)acetamido]phenyl}cyclohexyl (3-methylphenyl)acetate] were 2 nM and 88%.
As to `COc1cc(CC(=O)Nc2cccc([C@H]3CC[C@@H](OC(=O)Cc4ccccc4Cl)CC3)c2)ccc1O` [Example 10, cis-4-{3-[2-(4-hydroxy-3-methoxyphenyl)acetamido]phenyl}cyclohexyl (2-chlorophenyl)acetate], the EC50 at Human TRPV1 (setting [2]) amounted to 4.8 nM. Moreover, the “Residual rate (%)” value in data set [1] came to 67%.
As for `COc1cc(CC(=O)Nc2cccc([C@H]3CC[C@@H](OC(=O)CC4CCOCC4)CC3)c2)ccc1O` [Example 11, cis-4-{3-[2-(4-hydroxy-3-methoxyphenyl)acetamido]phenyl}cyclohexyl (oxa-4-yl)acetate], the EC50 at Human TRPV1 (setting [2]) was found to be 21.3 nM. Further, the “Residual rate (%)” value in data set [1] is 91%.
Taken in the same sequence, the figures for `COc1cc(CC(=O)Nc2cccc([C@H]3CC[C@@H](OC(=O)Cc4cccs4)CC3)c2)ccc1O` [Example 13, cis-4-{3-[2-(4-hydroxy-3-methoxyphenyl)acetamido]phenyl}cyclohexyl (thiophen-2-yl)acetate] were 9 nM and 89%.
At Human TRPV1, `COc1cc(CC(=O)Nc2cccc([C@H]3CC[C@@H](OC(=O)Cc4ccccc4)CC3)c2)ccc1O` [Example 35, cis-4-{3-[2-(4-hydroxy-3-methoxyphenyl)acetamido]phenyl}cyclohexyl phenylacetate] had an EC50 of 8.2 nM.
Still for that read-out and setting: to `COc1cc(CC(=O)Nc2cccc([C@H]3CC[C@H](OC(=O)Cc4ccccc4)CC3)c2)ccc1O` [Example 36, trans-4-{3-[2-(4-hydroxy-3-methoxyphenyl)acetamido]phenyl}cyclohexyl phenylacetate] belongs 57.5 nM.
On to `COc1cc(CC(=O)Nc2cccc([C@H]3CC[C@H](OC(=O)C4CCCCC4)CC3)c2)ccc1O` [Example 37, trans-4-{3-[2-(4-hydroxy-3-methoxyphenyl)acetamido]phenyl}cyclohexyl cyclohexanecarboxylate], for which the EC50 on Human TRPV1 (setting [2]) came out at 73.1 nM.
Same read-out and setting: the same measure for `COc1cc(CC(=O)Nc2cccc([C@H]3CC[C@H](OC(C)=O)CC3)c2)ccc1O` [Example 38, trans-4-{3-[2-(4-hydroxy-3-methoxyphenyl)acetamido]phenyl}cyclohexyl acetate]: 18.9 nM; for `COc1cc(CC(=O)Nc2cccc([C@H]3CC[C@@H](OC(C)=O)CC3)c2)ccc1OC(C)=O` [Example 39, 4-(2-{3-[(cis)-4-(acetyloxy)cyclohexyl]anilino}-2-oxoethyl)-2-methoxyphenyl acetate]: 282 nM.
On the same count and under the same terms, the same measure for `COc1cc(CC(=O)Nc2cccc([C@H]3CC[C@H](OC(C)=O)CC3)c2)ccc1OC(C)=O` [Example 40, 4-(2-{3-[(trans)-4-(acetyloxy)cyclohexyl]anilino}-2-oxoethyl)-2-methoxyphenyl acetate]: 480 nM; for `COc1cc(CC(=O)Nc2ccnc([C@H]3CC[C@@H](OC(C)=O)CC3)c2)ccc1O` [Example 41, cis-4-{4-[2-(4-hydroxy-3-methoxyphenyl)acetamido]pyridin-2-yl}cyclohexyl acetate]: 95.1 nM.
Consider `COc1cc(CNC(=O)c2cccc([C@H]3CC[C@@H](OC(C)=O)CC3)c2)ccc1O` [Example 42, cis-4-(3-{[(4-hydroxy-3-methoxyphenyl)methyl]carbamoyl}phenyl)cyclohexyl acetate], for which, at Human TRPV1 (setting [2]), the EC50 is 83.1 nM.
On the same count and under the same terms, the same measure for `COc1cc(CC(=O)Nc2ccnc([C@H]3CC[C@@H](OC(C)=O)CC3)c2)ccc1OC(C)=O` [Example 43, 4-[2-({2-[(cis)-4-(acetyloxy)cyclohexyl]pyridin-4-yl}amino)-2-oxoethyl]-2-methoxyphenyl acetate]: 3080 nM; for `COc1cc(CC(=O)Nc2cccc([C@H]3CC[C@H](OC(=O)C(C)C)CC3)c2)ccc1O` [Example 48, trans-4-{3-[2-(4-hydroxy-3-methoxyphenyl)acetamido]phenyl}cyclohexyl 2-methylpropanoate]: 32.1 nM.
The same measure, in the same setting: the same measure for `COc1cc(CC(=O)Nc2cccc([C@H]3CC[C@@H](O)CC3)c2)ccc1O` [Reference Example 9, N-{3-[(cis)-4-Hydroxycyclohexyl]phenyl}-2-(4-hydroxy-3-methoxyphenyl)acetamide]: 2690 nM.
Same read-out and setting: to `COc1cc(CC(=O)Nc2cccc([C@H]3CC[C@H](O)CC3)c2)ccc1O` [Reference Example 10, N-{3-[(trans)-4-Hydroxycyclohexyl]phenyl}-2-(4-hydroxy-3-methoxyphenyl)acetamide] belongs 8060 nM; to `COc1cc(CNC(=O)c2cccc(-c3cccc(O)c3)c2)ccc1O` [Reference Example 12, 3′-Hydroxy-N-[(4-hydroxy-3-methoxyphenyl)methyl][1,1′-biphenyl]-3-carboxamide], 3290 nM; to `COc1cc(CNC(=O)c2ccnc(-c3cccc(O)c3)c2)ccc1O` [Reference Example 18], 6110 nM.
For the molecule `COc1cc(CC(=O)Nc2cccc(-c3ccc(O)cc3)c2)ccc1O` [compound 13], the EC50 on Human TRPV1 (setting [2]) came out at 606 nM.
Same read-out and setting: to `COc1cc(CC(=O)Nc2cccc(-c3cccc(O)c3)c2)ccc1O` [compound 14] belongs 1650 nM; to `COc1cc(CC(=O)Nc2ccnc(-c3cccc(O)c3)c2)ccc1O` [compound 15], 4560 nM; to `COc1cc(CC(=O)Nc2cccc(-c3cccc(O)c3)n2)ccc1O` [compound 16], 1010 nM.
Same read-out and setting: to `COc1cc(CC(=O)Nc2ccc(F)c(-c3cccc(O)c3)c2)ccc1O` [compound 17] belongs 7020 nM.
Same read-out and setting: the same measure for `COc1cc(CNC(=O)c2cccc(-c3cccc(O)c3)n2)ccc1O` [compound 19]: 2720 nM.
